In ChEMBL document CHEMBL3885861, “Open TG-GATES”:

Species on record: Rattus norvegicus
Assay: Open TG-GATES - Regimen: Single
Format: toxicity, organism-based, Sprague-Dawley
Set-up: regimen Single, gender Male, age 6 weeks
Settings: in vivo, po, 10 mg/kg, route gavage, dose level Middle; for APTT / Bas / Eos / Fbg / Hb / Ht / Lym / MCH / MCHC / MCV / Mono / Neu / PT / Plat / RBC / Ret / WBC: tissue Blood; for KIDNEY_L / KIDNEY_R / KIDNEY_TOTAL: tissue Kidney; for LIVER: tissue Liver; for A/G / ALP / ALT / AST / BUN / CRE / Ca / Cl / DBIL / GLC / IP / K / LDH / Na / PL / RALB / TBIL / TC / TG / TP / gamma-GTP: tissue Plasma

C=CCO [ALLYL ALCOHOL]
TERMINAL_BW (3 h): 220.3 g | APTT (3 h): 20.3 s | Bas (3 h): 0% | Eos (3 h): 1% | Fbg (3 h): 217.8 mg/dL | Hb (3 h): 13.7 g/dL | Ht (3 h): 39.5% | Lym (3 h): 79.4% | MCH (3 h): 21.3 pg | MCHC (3 h): 34.9% | MCV (3 h): 61 fL | Mono (3 h): 2.8% | Neu (3 h): 16.8% | PT (3 h): 12.5 s | Plat (3 h): 140.4 x10_4/uL | RBC (3 h): 648.2 x10_4/ul | Ret (3 h): 6.3% | WBC (3 h): 94.5 x10_2/uL | KIDNEY_L (3 h): 1 g | KIDNEY_R (3 h): 1 g | KIDNEY_TOTAL (3 h): 2 g | LIVER (3 h): 9.9 g | A/G (3 h): 1.5 | ALP (3 h): 1147.4 IU/L | ALT (3 h): 37.6 IU/L | AST (3 h): 69.6 IU/L | BUN (3 h): 10.2 mg/dL | CRE (3 h): 0.4 mg/dL | Ca (3 h): 10.6 mg/dL | Cl (3 h): 100.2 meq/L | DBIL (3 h): 0.3 mg/dL | GLC (3 h): 197.8 mg/dL | IP (3 h): 8.6 mg/dL | K (3 h): 3.7 meq/L | LDH (3 h): 209.2 IU/L | Na (3 h): 139.4 meq/L | PL (3 h): 170.4 mg/dL | RALB (3 h): 3.4 g/dL | TBIL (3 h): 0.4 mg/dL | TC (3 h): 77 mg/dL | TG (3 h): 204.8 mg/dL | TP (3 h): 5.6 g/dL | gamma-GTP (3 h): 1 IU/L | TERMINAL_BW (6 h): 220.1 g | APTT (6 h): 19.1 s | Bas (6 h): 0% | Eos (6 h): 1% | Fbg (6 h): 226.8 mg/dL | Hb (6 h): 13.2 g/dL | Ht (6 h): 38.1% | Lym (6 h): 76% | MCH (6 h): 22 pg | MCHC (6 h): 34.5% | MCV (6 h): 63.7 fL | Mono (6 h): 3.2% | Neu (6 h): 19.2% | PT (6 h): 12.1 s | Plat (6 h): 132 x10_4/uL | RBC (6 h): 598 x10_4/ul | Ret (6 h): 7.1% | WBC (6 h): 99.4 x10_2/uL | KIDNEY_L (6 h): 1 g | KIDNEY_R (6 h): 1 g | KIDNEY_TOTAL (6 h): 1.9 g | LIVER (6 h): 9.8 g | A/G (6 h): 1.4 | ALP (6 h): 1136.8 IU/L | ALT (6 h): 35 IU/L | AST (6 h): 74 IU/L | BUN (6 h): 8 mg/dL | CRE (6 h): 0.4 mg/dL | Ca (6 h): 10.7 mg/dL | Cl (6 h): 102.4 meq/L | DBIL (6 h): 0.2 mg/dL | GLC (6 h): 200.2 mg/dL | IP (6 h): 9.1 mg/dL | K (6 h): 3.8 meq/L | LDH (6 h): 221.4 IU/L | Na (6 h): 141.2 meq/L | PL (6 h): 164.2 mg/dL | RALB (6 h): 3.2 g/dL | TBIL (6 h): 0.2 mg/dL | TC (6 h): 77.8 mg/dL | TG (6 h): 114.4 mg/dL | TP (6 h): 5.5 g/dL | gamma-GTP (6 h): 1.2 IU/L | TERMINAL_BW (9 h): 215.5 g | APTT (9 h): 18 s | Bas (9 h): 0% | Eos (9 h): 1% | Fbg (9 h): 217 mg/dL | Hb (9 h): 13.3 g/dL | Ht (9 h): 38.6% | Lym (9 h): 80.4% | MCH (9 h): 21.5 pg | MCHC (9 h): 34.4% | MCV (9 h): 62.6 fL | Mono (9 h): 2.2% | Neu (9 h): 16.2% | PT (9 h): 12.3 s | Plat (9 h): 125.1 x10_4/uL | RBC (9 h): 617.6 x10_4/ul | Ret (9 h): 6.5% | WBC (9 h): 74.3 x10_2/uL | KIDNEY_L (9 h): 0.9 g | KIDNEY_R (9 h): 0.9 g | KIDNEY_TOTAL (9 h): 1.9 g | LIVER (9 h): 8.9 g | A/G (9 h): 1.5 | ALP (9 h): 1058 IU/L | ALT (9 h): 29 IU/L | AST (9 h): 62 IU/L | BUN (9 h): 9.2 mg/dL | CRE (9 h): 0.3 mg/dL | Ca (9 h): 10.5 mg/dL | Cl (9 h): 101.8 meq/L | DBIL (9 h): 0.07 mg/dL | GLC (9 h): 203.8 mg/dL | IP (9 h): 10.3 mg/dL | K (9 h): 3.8 meq/L | LDH (9 h): 163.4 IU/L | Na (9 h): 140 meq/L | PL (9 h): 132.6 mg/dL | RALB (9 h): 3.3 g/dL | TBIL (9 h): 0.1 mg/dL | TC (9 h): 67 mg/dL | TG (9 h): 60.6 mg/dL | TP (9 h): 5.5 g/dL | gamma-GTP (9 h): 0.8 IU/L | TERMINAL_BW (24 h): 231.2 g | APTT (24 h): 17.9 s | Bas (24 h): 0% | Eos (24 h): 1% | Fbg (24 h): 232.2 mg/dL | Hb (24 h): 13.5 g/dL | Ht (24 h): 39.7% | Lym (24 h): 79.2% | MCH (24 h): 20.8 pg | MCHC (24 h): 34% | MCV (24 h): 61 fL | Mono (24 h): 2.8% | Neu (24 h): 16.6% | PT (24 h): 11.9 s | Plat (24 h): 127.4 x10_4/uL | RBC (24 h): 650.8 x10_4/ul | Ret (24 h): 6% | WBC (24 h): 93.9 x10_2/uL | KIDNEY_L (24 h): 1 g | KIDNEY_R (24 h): 1 g | KIDNEY_TOTAL (24 h): 1.9 g | LIVER (24 h): 11.1 g | A/G (24 h): 1.3 | ALP (24 h): 1042.2 IU/L | ALT (24 h): 38.2 IU/L | AST (24 h): 65 IU/L | BUN (24 h): 15 mg/dL | CRE (24 h): 0.4 mg/dL | Ca (24 h): 10.8 mg/dL | Cl (24 h): 102.4 meq/L | DBIL (24 h): 0.08 mg/dL | GLC (24 h): 203.6 mg/dL | IP (24 h): 7.2 mg/dL | K (24 h): 3.8 meq/L | LDH (24 h): 200.4 IU/L | Na (24 h): 140.2 meq/L | PL (24 h): 152.6 mg/dL | RALB (24 h): 3.1 g/dL | TBIL (24 h): 0.1 mg/dL | TC (24 h): 79.4 mg/dL | TG (24 h): 99.4 mg/dL | TP (24 h): 5.5 g/dL | gamma-GTP (24 h): 1 IU/L
